Key:
Pieris brassicae [1] = assay: Post-ingestive toxicity in Pieris brassicae on cabbage leaf discs at 5 mM; assay type: organism-based; conditions: in vivo, po, 5000 µM
Pieris brassicae [2] = assay: Antifeedant activity against fifth-instar larvae of Pieris brassicae on cabbage leaf discs at 5 mM measured upto 3 hr time period by two-choice bioassay; assay type: functional
Pieris brassicae [3] = assay: Antifeedant activity against fifth-instar larvae of Pieris brassicae on cabbage leaf discs at 5 mM measured 1.5 to 3 hr time period by no-choice bioassay; assay type: functional
Pieris brassicae [4] = assay: Antifeedant activity against fifth-instar larvae of Pieris brassicae on cabbage leaf discs at 5 mM measured 0 to 1.5 hr time period by no-choice bioassay; assay type: functional

Row | Compound | Activity (Pieris brassicae [1]) | AFI (Pieris brassicae [2]) | AFI (Pieris brassicae [3]) | AFI (Pieris brassicae [4])
1 | C1=C[C@@H]2CC(C3CCCCC3)O[C@@H]2O1 (some centres undefined) | Non-toxic | -2.5% | -12.3% | -9.3%
2 | CCCCCCCCCCC1C[C@H]2CC(=O)O[C@H]2O1 (some centres undefined) | – | 41% | – | –
3 | CC(=O)OC1C[C@]2(O)C[C@@H](C3CCCCC3)O[C@@H]2O1 (some centres undefined) | – | 9% | – | –
4 | COC1C[C@]2(O)C[C@@H](C3CCCCC3)O[C@@H]2O1 (some centres undefined) | – | 18% | – | –
5 | OC1C[C@]2(O)C[C@@H](C3CCCCC3)O[C@@H]2O1 (some centres undefined) | – | 16% | – | –
6 | OC1C[C@H]2CC(C3CCCCC3)O[C@H]2O1 (some centres undefined) | Non-toxic | 10% | 15.9% | 18.6%
7 | O[C@]12C=CO[C@H]1O[C@H](C1CCCCC1)C2 | – | 54% | – | –
8 | CCCCCCC1C[C@H]2C=CO[C@H]2O1 (some centres undefined) | Non-toxic | 11% | 10.6% | 20.3%
9 | O[C@]12CCO[C@H]1O[C@H](C1CCCCC1)C2 | – | 24% | – | –
10 | C1CCC(C2C[C@@H]3CCO[C@@H]3O2)CC1 (some centres undefined) | Non-toxic | 26% | 5.4% | 6.7%
11 | O=C1C[C@]2(O)C[C@@H](C3CCCCC3)O[C@@H]2O1 | – | 9% | – | –
12 | O=C1C[C@H]2CC(C3CCCCC3)O[C@H]2O1 (some centres undefined) | Non-toxic | 10% | 13.9% | 22.4%
13 | CCOC1C[C@H]2CC(C3CCCCC3)O[C@H]2O1 (some centres undefined) | Non-toxic | 20% | 9.5% | 18.3%
14 | CC(=O)OC1C[C@H]2CC(C3CCCCC3)O[C@H]2O1 (some centres undefined) | Non-toxic | 16% | 3% | 16.7%
15 | O=C1C[C@@H]2C[C@@H](c3ccccc3)O[C@@H]2O1 (racemic) | – | 18% | – | –
16 | O=C1C[C@@H]2C[C@H](C3CCCCC3)O[C@@H]2O1 (relative stereo) | – | 24% | – | –
17 | C1=C[C@@H]2CC(c3ccccc3)O[C@@H]2O1 (some centres undefined) | Non-toxic | 11% | -2.6% | -1.7%
18 | CCCCCCC1C[C@H]2CC(=O)O[C@H]2O1 (some centres undefined) | – | -11% | – | –
19 | O=C1C[C@H]2C[C@@H](C3CCCCC3)O[C@@H]2O1 (relative stereo) | – | 9% | – | –
20 | CCCCCCCCCC[C@@H]1C[C@H]2CC(=O)O[C@H]2O1 (racemic) | – | 10% | – | –

Reference: ChEMBL document CHEMBL3044695, “Synthesis and insect antifeedant activity of C-2 and C-5 substituted perhydrofurofurans and 3a-hydroxy-perhydrofurofurans (Part I)” (Tetrahedron, 1999)
